Test system: FGFR2
Assay: FRS2, Erk1/2 and PLCγ phosphorylation in FGFR2-transfected HEK293 cells (western blot)
Type: cell-based, human
Details: compound at 1 μM
Description: HEK293 cells were either transiently of stably transfected (using FuGENE 6, Roche) with hFGFR2IIIca or hFGFR2IIIca-Y328D cloned in pcDNA3 (Invitrogen). Stably transfected cells were grown in G418 (400 μg/ml) containing medium. Before stimulation, the cells were starved overnight in DMEM (0% serum), and pre-incubated with […] at the required concentration. The cells were subsequently stimulated with FGF2 (concentration between 0.5-10 ng/ml) for 5 min at 37° C. with or without SSR or SU5402 at 1 μM. After washing with ice-cold phosphate-buffered saline containing phosphatase inhibitors (Roche), cells were lysed in RIPA buffer (Tris 30 mM HCl pH 7.5, 150 mM NaCl, 1 mM EDTA, 1% triton-X, 0.5% w/v deoxycholate, containing phophatase and protease inhibitors as described by the manufacturer (Roche)). Cell lysates were centrifuged at 12,000 g for 10 min, and the supernatants were collected. Proteins were separated on Novex polyacrylamide gels (Invitrogen, Carlsbad, Calif.) and subsequently transferred onto Hybond ECL nitrocellulose membranes (Amersham Pharmacia). Following incubation with 5% non-fat milk powder in PBS, the membranes were incubated overnight at 4° C. with the following antibodies: phospho-ERK1/2 (CST:9101), phospho-FRS2 (CST:3861), phospho-PLCγ (CST:2821) and FGFR2 (F0300, Sigma).
In order to evaluate SSR effect on FGFR-controlled phosphor-signalling, HEK293 cells have been transfected with FGFR2 and the two main pathways following FGFR autophosphorylation, PLCγ and FRS2, have been studied by western blot in comparison with a published FGFR tyrosine kinase inhibitor SU5402 described to inhibit FGFR-dependent FRS2 and PLCγ cascades (Zhen et al., Oncogene 2007). In such cells, FGF induces FRS2, Erk1/2 and PLCγ phosphorylation. […] More generally, these differences in phosphorylation can be used as reporter to evaluate allosteric modulators.

Cc1c[nH]c(/C=C2\C(=O)Nc3ccccc32)c1CCC(=O)O [SU5402]
blocks: FGF-induced Erk1/2 phosphorylation | FGF-induced FRS2 phosphorylation | FGF-induced PLCγ phosphorylation
